“And” between values parts separate entries of the source, which are not always exact repeats. Equal values may be shown once.
Columns and labels:
[1] = test system: cell line 25H9 (CHO cells that produce IL-1R-II protein); experiment: Example 1: induction of IL-1R-II production (ELISA titer, productivity) at 31° C. or 34° C.; type: cell-based, Chinese hamster
Procedure: (§1) The following experiment was designed to test whether decitabine can induce the production of a protein, in this case a recombinant soluble form of the human interleukin 1 receptor type II (IL-1-R-II), at either 31° C. or 34° C. Soluble versions of IL-1R-II and methods for producing it are described in U.S. Pat. No. 5,767,064. DNA encoding a soluble form of the human IL-1R-II was inserted into pG3.6, which is described in Morris et al. ((1998), Cytotechnology 28:9-17). This construct was used to transfect CHO cells to produce cell lines, including 25H9, that produce IL-1R-II protein.
(§2) About 2×10^6 cells of cell line 25H9 were inoculated into 30 milliliters of serum-free medium and incubated at the temperatures indicated in Table 1 in vented shake flasks. At the times indicated in Table 1, samples were taken from each flask to determine IL-1R-II titer, cell number, and cell viability. IL-1R-II protein titer was determined by ELISA assay. Cell number was determined by counting cells in a hemocytometer. Cell viability was determined by trypan blue staining and counting stained cells in a hemocytometer. Cumulative viable cell density (CVCD) is the area under the curve of a plot of the viable cell density versus time (in units of cells/ml/day). Productivity (pg of IL-1R-II/cell/day) was determined by dividing the protein titer on a particular day by the CVCD on the same day. Cells were fed with amino acids on days 2 and 5, and dextrose was added periodically in order to maintain levels above 2.0 g/L. All samples were done in duplicate, and the data shown is an average value.

[2] = Example 1: cell number (hemocytometer) and viability (trypan blue); type: cell-based, Chinese hamster; details: Chinese hamster
Procedure: as §1, §2

[3] = 31° C., 1 μM decitabine, day 10
[4] = 31° C., 5 μM decitabine, day 10
[5] = 31° C., 10 μM decitabine, day 0
[6] = 31° C., 10 μM decitabine, day 3
[7] = 31° C., 10 μM decitabine, day 5
[8] = 31° C., 10 μM decitabine, day 7
[9] = 31° C., 10 μM decitabine, day 10
[10] = 34° C., 10 μM decitabine, day 3
[11] = 34° C., 10 μM decitabine, day 5
[12] = 34° C., 10 μM decitabine, day 7

**Q.** For Nc1ncn([C@H]2C[C@H](O)[C@@H](CO)O2)c(=O)n1 [decitabine, 5-aza-2′-deoxycytidine], which “IL-1R-II Titer” value ([1]; 31° C., 1 μM decitabine, day 0) is on record?
**A.** Its value is 0.0 µg/mL.

**Q.** And the “IL-1R-II Titer” value ([1]; 31° C., 1 μM decitabine, day 3)?
**A.** Its value is 62.6 µg/mL.

**Q.** What about the Productivity ([1]; 31° C., 1 μM decitabine, day 3) of the same compound?
**A.** The Productivity was 7.5 pg IL-1R-II/cell/day.

**Q.** And the “IL-1R-II Titer” value ([1]; 31° C., 1 μM decitabine, day 5)?
**A.** Its value is 132.0 µg/mL.

**Q.** What about the Productivity ([1]; 31° C., 1 μM decitabine, day 5) of the same compound?
**A.** Its Productivity is 7.8 pg IL-1R-II/cell/day.

**Q.** And the “IL-1R-II Titer” value ([1]; 31° C., 1 μM decitabine, day 7)?
**A.** The value was 216.5 µg/mL.

**Q.** And the Productivity ([1]; 31° C., 1 μM decitabine, day 7)?
**A.** The Productivity was 7.8 pg IL-1R-II/cell/day.

**Q.** What about the “IL-1R-II Titer” value [1, 3] of the same compound?
**A.** Its value is 330.5 µg/mL.

**Q.** And the Productivity [1, 3]?
**A.** Its Productivity is 7.5 pg IL-1R-II/cell/day.

**Q.** What about the “IL-1R-II Titer” value ([1]; 31° C., 5 μM decitabine, day 0) of the same compound?
**A.** Its value is 0.0 µg/mL.

**Q.** And the “IL-1R-II Titer” value ([1]; 31° C., 5 μM decitabine, day 3)?
**A.** The value was 77.8 µg/mL.

**Q.** And the Productivity ([1]; 31° C., 5 μM decitabine, day 3)?
**A.** The Productivity was 9.2 pg IL-1R-II/cell/day.

**Q.** What about the “IL-1R-II Titer” value ([1]; 31° C., 5 μM decitabine, day 5) of the same compound?
**A.** The value was 123.5 µg/mL.

**Q.** And the Productivity ([1]; 31° C., 5 μM decitabine, day 5)?
**A.** The Productivity was 7.8 pg IL-1R-II/cell/day.

**Q.** What about the “IL-1R-II Titer” value ([1]; 31° C., 5 μM decitabine, day 7) of the same compound?
**A.** Its value is 210.5 µg/mL.

**Q.** What about the Productivity ([1]; 31° C., 5 μM decitabine, day 7) of the same compound?
**A.** Its Productivity is 9.2 pg IL-1R-II/cell/day.

**Q.** And the “IL-1R-II Titer” value [1, 4]?
**A.** The value was 351.0 µg/mL.

**Q.** What about the Productivity [1, 4] of the same compound?
**A.** The Productivity was 8.8 pg IL-1R-II/cell/day.

**Q.** And the “IL-1R-II titer relative to the titer observed at 31° C. with no inducer” value ([1]; 31° C., 10 μM decitabine)?
**A.** The value was 1.7 times.

**Q.** And the “most effective concentration for IL-1R-II titer” value ([1]; 31° C., 10 μM decitabine among 1, 5, 10 μM)?
**A.** The value was “most effective concentration among those tested”.

**Q.** And the “IL-1R-II Titer” value [1, 5]?
**A.** The value was 0.0 µg/mL.

**Q.** What about the “IL-1R-II Titer” value [1, 6] of the same compound?
**A.** The value was 59.1 µg/mL.

**Q.** What about the Productivity [1, 6] of the same compound?
**A.** Its Productivity is 8.0 pg IL-1R-II/cell/day.

**Q.** And the “IL-1R-II Titer” value [1, 7]?
**A.** Its value is 149.5 µg/mL.

**Q.** And the Productivity [1, 7]?
**A.** The Productivity was 10.4 pg IL-1R-II/cell/day.

**Q.** What about the “IL-1R-II Titer” value [1, 8] of the same compound?
**A.** Its value is 224.5 µg/mL.

**Q.** And the Productivity [1, 8]?
**A.** The Productivity was 10.4 pg IL-1R-II/cell/day.

**Q.** What about the “IL-1R-II Titer” value [1, 9] of the same compound?
**A.** Its value is 378 µg/mL and 378.0 µg/mL.

**Q.** What about the Productivity [1, 9] of the same compound?
**A.** The Productivity was 11.9 pg IL-1R-II/cell/day.

**Q.** What about the “IL-1R-II Titer” value ([1]; 34° C., 1 μM decitabine, day 0) of the same compound?
**A.** Its value is 0.0 µg/mL.

**Q.** And the “IL-1R-II Titer” value ([1]; 34° C., 1 μM decitabine, day 3)?
**A.** The value was 65.4 µg/mL.

**Q.** And the Productivity ([1]; 34° C., 1 μM decitabine, day 3)?
**A.** The Productivity was 5.7 pg IL-1R-II/cell/day.

**Q.** What about the “IL-1R-II Titer” value ([1]; 34° C., 1 μM decitabine, day 5) of the same compound?
**A.** Its value is 143.5 µg/mL.

**Q.** What about the Productivity ([1]; 34° C., 1 μM decitabine, day 5) of the same compound?
**A.** Its Productivity is 5.6 pg IL-1R-II/cell/day.

**Q.** And the “IL-1R-II Titer” value ([1]; 34° C., 1 μM decitabine, day 7)?
**A.** The value was 212.5 µg/mL.

**Q.** What about the Productivity ([1]; 34° C., 1 μM decitabine, day 7) of the same compound?
**A.** The Productivity was 5.1 pg IL-1R-II/cell/day.

**Q.** And the “IL-1R-II Titer” value ([1]; 34° C., 1 μM decitabine, day 10)?
**A.** The value was 206.0 µg/mL.

**Q.** What about the “IL-1R-II Titer” value ([1]; 34° C., 5 μM decitabine, day 0) of the same compound?
**A.** The value was 0.0 µg/mL.

**Q.** What about the “IL-1R-II Titer” value ([1]; 34° C., 5 μM decitabine, day 3) of the same compound?
**A.** Its value is 73.6 µg/mL.

**Q.** What about the Productivity ([1]; 34° C., 5 μM decitabine, day 3) of the same compound?
**A.** Its Productivity is 6.4 pg IL-1R-II/cell/day.

**Q.** What about the “IL-1R-II Titer” value ([1]; 34° C., 5 μM decitabine, day 5) of the same compound?
**A.** The value was 156.5 µg/mL.

**Q.** What about the Productivity ([1]; 34° C., 5 μM decitabine, day 5) of the same compound?
**A.** The Productivity was 6.3 pg IL-1R-II/cell/day.

**Q.** What about the “IL-1R-II Titer” value ([1]; 34° C., 5 μM decitabine, day 7) of the same compound?
**A.** The value was 218.5 µg/mL.

**Q.** What about the Productivity ([1]; 34° C., 5 μM decitabine, day 7) of the same compound?
**A.** The Productivity was 5.7 pg IL-1R-II/cell/day.

**Q.** What about the “IL-1R-II Titer” value ([1]; 34° C., 5 μM decitabine, day 10) of the same compound?
**A.** The value was 307 µg/mL and 307.0 µg/mL.

**Q.** And the “IL-1R-II Titer” value ([1]; 34° C., 10 μM decitabine, day 0)?
**A.** Its value is 0.0 µg/mL.

**Q.** What about the “IL-1R-II Titer” value [1, 10] of the same compound?
**A.** The value was 80.8 µg/mL.

**Q.** What about the Productivity [1, 10] of the same compound?
**A.** Its Productivity is 8.3 pg IL-1R-II/cell/day.

**Q.** What about the “IL-1R-II Titer” value [1, 11] of the same compound?
**A.** Its value is 151.5 µg/mL.

**Q.** And the Productivity [1, 11]?
**A.** Its Productivity is 7.9 pg IL-1R-II/cell/day.

**Q.** And the “IL-1R-II Titer” value [1, 12]?
**A.** The value was 203.5 µg/mL.

**Q.** What about the Productivity [1, 12] of the same compound?
**A.** The Productivity was 7.5 pg IL-1R-II/cell/day.

**Q.** And the “IL-1R-II titers at 34° C. compared with 31° C.” value ([1]; all concentrations of decitabine at 34° C.)?
**A.** The value was “Lower IL-1R-II titers”.

**Q.** And the “productivity on a per cell basis” value ([1]; at 7 and 10 days at all concentrations and temperatures tested)?
**A.** The value was “increased”.

**Q.** What about the viability at 0 day, 1 μM ([2]; 31° C., 1 μM decitabine, day 0) of the same compound?
**A.** Its viability at 0 day, 1 μM is 96.1%.

**Q.** What about the viability at 3 day, 1 μM ([2]; 31° C., 1 μM decitabine, day 3) of the same compound?
**A.** Its viability at 3 day, 1 μM is 93.4%.

**Q.** What about the viability at 5 day, 1 μM ([2]; 31° C., 1 μM decitabine, day 5) of the same compound?
**A.** The viability at 5 day, 1 μM was 94.8%.

**Q.** And the viability at 7 day, 1 μM ([2]; 31° C., 1 μM decitabine, day 7)?
**A.** The viability at 7 day, 1 μM was 87.7%.

**Q.** What about the viability at 10 day, 1 μM [2, 3] of the same compound?
**A.** The viability at 10 day, 1 μM was 63.9%.

**Q.** What about the viability at 0 day, 5 μM ([2]; 31° C., 5 μM decitabine, day 0) of the same compound?
**A.** The viability at 0 day, 5 μM was 96.1%.

**Q.** What about the viability at 3 day, 5 μM ([2]; 31° C., 5 μM decitabine, day 3) of the same compound?
**A.** The viability at 3 day, 5 μM was 93.6%.

**Q.** And the viability at 5 day, 5 μM ([2]; 31° C., 5 μM decitabine, day 5)?
**A.** The viability at 5 day, 5 μM was 84.6%.

**Q.** And the viability at 7 day, 5 μM ([2]; 31° C., 5 μM decitabine, day 7)?
**A.** The viability at 7 day, 5 μM was 77.7%.

**Q.** And the viability at 10 day, 5 μM [2, 4]?
**A.** The viability at 10 day, 5 μM was 58.5%.

**Q.** And the viability at 0 day, 10 μM [2, 5]?
**A.** The viability at 0 day, 10 μM was 96.1%.

**Q.** What about the viability at 3 day, 10 μM [2, 6] of the same compound?
**A.** The viability at 3 day, 10 μM was 94.5%.

**Q.** And the viability at 5 day, 10 μM [2, 7]?
**A.** The viability at 5 day, 10 μM was 80.8%.

**Q.** And the viability at 7 day, 10 μM [2, 8]?
**A.** Its viability at 7 day, 10 μM is 72.5%.

**Q.** And the viability at 10 day, 10 μM [2, 9]?
**A.** The viability at 10 day, 10 μM was 50.6%.

**Q.** What about the viability at 0 day, 1 μM ([2]; 34° C., 1 μM decitabine, day 0) of the same compound?
**A.** Its viability at 0 day, 1 μM is 96.1%.

Reference: patent publication US6890736B1, “Methods for producing proteins in cultured cells” (Immunex Corporation, priority 2002, dated 2005)
